Measured values: PubChem BioAssay (NCI)
“And” between values parts separate entries of the source, which are not always exact repeats. Equal values may be shown once.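 The compound was tested at five concentrations on cells cultured in 96-well plates, with a 48-hour exposure period. GI50 marks 50% less growth. TGI marks complete inhibition of growth.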

Assays:
Experiment in all cases: inhibition of tumour cell growth, NCI panel, 48 h
SK-OV-3 ovarian = system: SK-OV-3 ovarian
OVCAR-5 ovarian = system: OVCAR-5 ovarian
MALME-3M melanoma = system: MALME-3M melanoma
MDA-MB-435 = system: MDA-MB-435
SW-620 colon = system: SW-620 colon
HL-60(TB) leukemia = system: HL-60(TB) leukemia
PC-3 prostate = system: PC-3 prostate
HCT-116 colon = system: HCT-116 colon
HT29 colon = system: HT29 colon
CAKI-1 renal = system: CAKI-1 renal

SMILES | GI50 (SK-OV-3 ovarian) [µM] | TGI (SK-OV-3 ovarian) | GI50 (OVCAR-5 ovarian) [µM] | TGI (OVCAR-5 ovarian) | GI50 (MALME-3M melanoma) [µM] | TGI (MALME-3M melanoma) | GI50 (MDA-MB-435) [µM] | TGI (MDA-MB-435) [µM] | GI50 (SW-620 colon) [µM] | TGI (SW-620 colon) [µM] | GI50 (HL-60(TB) leukemia) [µM] | TGI (HL-60(TB) leukemia) [µM] | GI50 (PC-3 prostate) [µM] | TGI (PC-3 prostate) [µM] | GI50 (HCT-116 colon) [µM] | TGI (HCT-116 colon) | GI50 (HT29 colon) [µM] | TGI (HT29 colon) | GI50 (CAKI-1 renal) [µM] | TGI (CAKI-1 renal)
O=C(/C=C/c1cc([N+](=O)[O-])ccc1Cl)c1ccccc1 | 39 | > 100 µM | 23.5 | 74.2 µM | 19.4 | 44.7 µM | 14.2 | 35.5 | 2.05 | 3.9 | 32 | 96.4 | 24.5 | 82.9 | 1.59 | 2.93 µM | 3.36 | 19.4 µM | 5.32 | 31.3 µM
CC(=O)O[C@]1(C(C)=O)CC[C@H]2[C@@H]3C=C(C)C4=CC(=O)CC[C@]4(C)[C@H]3CC[C@@]21C | > 91.9 | > 100 µM | > 100 | > 100 µM | > 74 | > 100 µM | > 100 | > 100 | > 100 | > 100 | 12.8 | 61.6 | 42.6 | > 100 | 28 | > 100 µM | > 100 | > 100 µM | > 100 | > 100 µM
O=C(NP(=O)(N1CC1)N1CC1)c1cc(I)ccc1I |  | 89.9 µM |  | > 100 µM |  | > 92 µM |  | > 100 |  | > 100 |  | > 96.4 |  | > 100 |  | > 100 µM |  | > 100 µM |  | > 100 µM
CC1OC(OC2C(O[C@H]3CC[C@@]4(C)C(=CC[C@H]5[C@@H]6C[C@@H]7O[C@]8(CC[C@H](C)CN8)[C@@H](C)[C@@H]7[C@@]6(C)CC[C@@H]54)C3)OC(CO)C(O)C2OC2OC(CO)C(O)C(O)C2O)C(O)C(O)C1O (stereo partly specified) |  | 30.5 µM |  | 28.7 µM |  | 34.5 µM |  | 50.7 |  | 39 |  | 32.6 |  | 33.5 |  | 39.9 µM |  | 31.6 µM |  | 34 µM
COc1cc(C2=C(C#Cc3ccccc3)COC2=O)cc(OC)c1OC | 20.4 | > 100 µM | 7.89 | > 57.9 µM | 3.72 | 33.1 µM | 0.302 |  | 0.755 |  | 0.246 | 3.36 | 1.05 | 20.3 | 0.69 | 4.01 µM | 3.02 | > 100 µM | 20.3 | > 100 µM
Cn1ccnc1C(=O)/C=C/c1ccccc1 | 4.55 | 35.9 µM | 13.7 | 27.8 µM | 12.3 | 27.9 µM | 3.21 | 10.2 | 3.58 | 12.4 | 2.79 | 7.73 | 12.5 | 37.4 | 2.72 | 12.2 µM | 3.31 | 11.2 µM | 3.88 | 19 µM
CCCCCCCCCCCC1CCCC(C)N1 (stereo unspecified) | 14.5 | 28.5 µM and 158 µM | 12.5 | 28.5 µM and 162 µM | 8.03 | 22.7 µM and 166 µM | 5.01 | 18.2 | 2.71 |  | 1.15 |  | 5.57 | 45 | 5.82 | > 41.9 µM and 104 µM | 2.59 | 8.78 µM and 65.7 µM | 4.84 | 19.5 µM and 116 µM
Nc1nc(-c2ccccc2)nc2c1[n+]([O-])c1ccccc1[n+]2[O-] |  | > 100 µM |  | > 100 µM |  | > 100 µM |  | > 100 |  | > 100 |  | > 100 |  | > 100 |  | > 100 µM |  | > 100 µM |  | > 100 µM
